Source: patent US20240316043A1, “BROMODOMAIN INHIBITORS FOR CANCER THERAPY” (University of Tennessee Research Foundation, priority 2023, published 2024)
Entries after “also recorded” stand apart in the source; their conditions may differ.

Tests used:
[1] = system: intracranial GBM xenografts (MT330 cells); test: Orthotopic GBM model, MT330 cells injected into brains of NSG mice; type: in vivo; conditions: for bioluminescent signal in the brain: combination with TMZ (10 mg/Kg), IV-255 or IV-275 (20 mg/Kg) IP 3 times per week, 3-4 weeks after treatment, versus either agent alone, FIG. 10
Procedure: MT330 cells (10^6) were injected into the brains of NSG female mice. After tumors were identified by BLI (˜10 days post-injection), mice were IP injected with TMZ (60 mg/Kg body weight) or IV-129 (10 mg/Kg) alone or in combination 3 times per week (5 mice per group) for 2 weeks. […] FIG. 5C Kaplan-Meier analysis of the survival data (5 mice/group) of the brain tumor-bearing mice was performed.
MT330 cells […] were injected into the brains of NSG female mice. After tumors were identified by BLI (˜10 days post-injection), mice were IP injected with TMZ (10 mg/Kg body weight), IV-255 or IV-275 (20 mg/Kg) alone or in combination 3 times per week (5 mice/group).
Luciferase-expressing MT330 cells were injected into the brains of immunocompromised NSG mice. Once tumors were identified by bioluminescence imaging (BLI) at ˜10 days after tumor cell injection, mice were subjected to intraperitoneal injection of TMZ or YH-IV-129 alone, or in combination. At 20 days after initiation of treatment, live animal imaging was performed on an IVIS Lumina instrument. […] The mean survival of control mice was 27 days after cell injection (FIG. 5C).
Luciferase-expressing MT330 cells were injected into the brains of immunocompromised NSG mice. Once tumors were identified by bioluminescence imaging (BLI) at ˜10 days after tumor cell injection, mice were subjected to intraperitoneal injection of TMZ or YH-IV-255 or YH-IV-275 alone, or in combination. […] This is compelling preliminary evidence that these two new compounds have potent anticancer activity in intracranial GBM xenografts when combined with standard-of-care TMZ chemotherapy and that these drugs cross the blood-brain barrier.

[2] = target: T1, BRG1 bromodomain (Homo sapiens, UniProt P51532); test: Cellular thermal shift assay (CETSA), BRG1 bromodomain construct in MT330 cells; type: binding; parameters: binding to the BRG1 BRD: dose or concentration left out as unconfirmed; conditions: for thermostability of the BRG1 BRD: 30 μM, heating 44.5° C. to 55.6° C. for 5 min, immunoblot; for binding to the BRG1 BRD: CETSA, FIG. 6C; for selectivity BRG1 versus BRM bromodomain: conclusion from CETSA and knockout cells
T1 construct: expressed in transfected cells; host or cells: MT330 glioblastoma cells
T1 sequence (P51532 1453-1564 limits assumed): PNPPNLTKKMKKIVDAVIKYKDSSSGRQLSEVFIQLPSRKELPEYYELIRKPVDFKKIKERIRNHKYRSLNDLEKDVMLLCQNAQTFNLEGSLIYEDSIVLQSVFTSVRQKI
Procedure: After heating over a temperature range from 44.5° C. to 55.6° C. for 5 min, the cells were lysed, placed on ice at 4° C. and then immunoblotted for BRG1 or actin.
(§1) For the CETSA, MT330 cells expressing the BRM (FIG. 6B), or BRG1 (FIG. 6C) the BRD construct were treated with bromodomain inhibitors […] and immunoblotted as indicated.
(§2) After heating over a temperature range from 44.5° C. to 55.6° C. for 5 min, MT330 cells were lysed and then immunoblotted for BRG1 or BRM.

[3] = target: T2, BRM bromodomain (Homo sapiens, UniProt P51531); test: Cellular thermal shift assay (CETSA), BRM bromodomain construct in MT330 cells; type: binding; parameters: binding to the BRM BRD: dose or concentration left out as unconfirmed; conditions: for thermostability of the BRM BRD: heating 44.5° C. to 55.6° C. for 5 min, immunoblot; for binding to the BRM BRD: CETSA, FIG. 6B
T2 construct: expressed in transfected cells; host or cells: MT330 glioblastoma cells
T2 sequence (P51531 1378-1506 limits assumed): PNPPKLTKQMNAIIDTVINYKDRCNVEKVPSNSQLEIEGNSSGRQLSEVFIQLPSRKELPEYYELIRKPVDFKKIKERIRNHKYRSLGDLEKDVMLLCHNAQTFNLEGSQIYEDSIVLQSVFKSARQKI
Procedure: as §1, §2

[4] = system: T98G GBM cells; test: IncuCyte live cell imaging proliferation assay; type: cell-based; conditions: TMZ (500 μM) plus bromodomain inhibitors (20 μM), FIG. 2
Procedure: T98G GBM cells were treated with TMZ (500 μM), the bromodomain inhibitors (20 μM), and cell proliferation was determined by Incucyte live cell assays using cellular confluence method. The data was normalized to the calculated cell confluence at day 0. Control cells were treated with vehicle (DMSO).
To further characterize the biological activity of selected bromodomain inhibitors, YH-IV-129, YH-IV-181 and YH-IV-191, IncuCyte live cell imaging proliferation assays were performed with the highly TMZ-resistant T98G GBM cell line.

[5] = system: MT330 GBM cells; test: Cell death ELISA in MT330 GBM cells; type: cell-based; conditions: for enhancement of TMZ-induced cell death: 10 mM inhibitor in combination with 200 mM of TMZ, 72 hrs, FIG. 1; for enhancement of bleomycin-induced cell death: bleomycin (0.01 μM) and bromodomain inhibitors (10 μM); for enhancement of bleomycin-induced cell death / cell death, inhibitor alone: 72 hr, FIG. 9; for cell death, inhibitor alone: bromodomain inhibitors (10 μM) alone
Procedure: Control cells were treated with vehicle (DMSO). Cell death was determined at 72 hr after treatment by a cell death ELISA that quantifies histone-complexed DNA fragments. […]
Parental and BRG1 knockout MT330 cells were treated with bleomycin (0.01 μM) and bromodomain inhibitors […]. After 72 hr, cell death was determined by cell death ELISA.
The biological activity of bromodomain inhibitors was assessed for the ability to enhance TMZ-induced cell death. In brief, MT330 cells were treated with […] of bromodomain inhibitors alone, or in combination with […] of TMZ for 72 hrs, and GBM cell death was determined by a commercial ELISA.

[6] = system: LN229 GBM cells; test: γH2Ax immunostaining after TMZ; type: cell-based; parameters: dose or concentration left out as unconfirmed; conditions: 24 hrs, FIG. 11
Procedure: After treatment for 24 hrs, cells were fixed and immunostained for gH2Ax. Analysis of immunostaining was performed on a laser confocal microscope.
As TMZ is DNA damaging agent, we tested the ability of various bromodomain inhibitors to enhance TMZ-induced DNA damage as evidence by immunostaining of GBM cells with γH2Ax and examination of the staining on a confocal microscope. γH2AX is the phosphorylated version of the histone variant H2Ax and is a highly specific and sensitive marker for monitoring DNA damage initiation and resolution. […] Similar results were obtained with MT330 GBM cells.

[7] = system: MT330 GBM cells; test: Cell death ELISA in MT330 GBM cells; type: cell-based; conditions: for TMZ sensitivity (TMZ-induced cell death): TMZ (500 μM) and bromodomain inhibitors (10 μM), 24 hr, FIG. 6A
[8] = system: BRG1 knockout MT330 cells; test: Cell death ELISA in BRG1 knockout MT330 cells; type: cell-based; conditions: 72 hr
Procedure: (§3) BRG1 and BRM knockout MT330 cells were treated with TMZ (500 μM) and bromodomain inhibitors (10 μM). After 72 hr, cell death was determined by a cell death ELISA.
Parental and BRG1 knockout MT330 cells were treated with bleomycin (0.01 μM) and bromodomain inhibitors (10 μM). After 72 hr, cell death was determined by cell death ELISA.
(§4) To further characterize the specificity of YH-IV-255 for the BRG1 bromodomain, GBM cell lines were generated with either BRG1 or BRM knocked out by CRISPR/Cas9 gene editing.^14 These cells were isolated by puromycin selection and the knockout of the either subunit was validated by immunoblotting.

[9] = system: BRM knockout MT330 cells; test: Cell death ELISA in BRM knockout MT330 cells; type: cell-based; conditions: TMZ (500 μM) and bromodomain inhibitors (10 μM), 72 hr, FIG. 7
Procedure: as §3, §4

[10] = system: MT330 cells; test: γH2Ax immunostaining after bleomycin; type: cell-based; conditions: bleomycin alone (0.5 and 2 μM), 1 hr, FIG. 8
Procedure: After 1 hr of bleomycin treatment cell death, cells were fixed and immunostained for γH2Ax. Analysis of immunostaining was performed on at least 1,000 cells on the Lionheart FX imaging system.
Bleomycin is a chemotherapeutic drug that is used to treat various cancers. […] Thus, the ability of bleomycin to induce DNA damage as evidence by immunostaining of MT330 cells and LN229 with γH2Ax was tested. Quantification of cell staining was determined on the Lionheart FX imaging station.

[11] = vehicle control band disappearing at 49.8° C., FIG. 3

Compound: Cn1nnc2c(C(N)=O)ncn2c1=O [TMZ, temozolomide, reference compound]
- mean survival, either agent alone ([1]; TMZ (60 mg/Kg) or IV-129 (10 mg/Kg) alone IP, control mice 27 days, FIG. 5C): 35 days

Compound: COc1ccc(N2C[C@H]3C[C@@H]2CN3C(=O)Nc2ccccc2)cc1 [YH-IV-181, (1R,4R)-5-(4-methoxyphenyl)-N-phenyl-2,5-diazabicyclo[2.2.1]heptane-2-carboxamide]
- thermostability of the BRG1 BRD ([2]; FIG. 3): significantly increased the thermostability
- temperature at which the BRG1 BRD protein band is undetectable [2, 11]: 54.20 °C
- thermostability of the BRM BRD ([3]; FIG. 3): significantly increased the thermostability
- temperature at which the BRM BRD protein band is undetectable [3, 11]: 54.20 °C
- sensitization to the antiproliferative action of TMZ [4]: potently sensitized T98G GBM cells to the antiproliferative action of TMZ

Compound: COc1ccc(N2C[C@H]3C[C@@H]2CN3C(=O)NC(C)(C)C)cc1 [YH-IV-185, (1R,4R)-N-(tert-butyl)-5-(4-methoxyphenyl)-2,5-diazabicyclo[2.2.1]heptane-2-carboxamide]
- thermostability of the BRG1 BRD ([2]; FIG. 3): only moderately increased the thermostability
- thermostability of the BRM BRD ([3]; FIG. 3): only moderately increased the thermostability

Compound: COc1ccc(N2CCN(C(=O)OC(C)(C)C)CC2)cc1 [YH-IV-189, tert-butyl 4-(4-methoxyphenyl)piperazine-1-carboxylate]
- thermostability of the BRG1 BRD ([2]; FIG. 3): only moderately increased the thermostability
- thermostability of the BRM BRD ([3]; FIG. 3): only moderately increased the thermostability

Compound: COc1ccc(N2C[C@H]3C[C@@H]2CN3C(=O)Nc2ccc(F)cc2)cc1 [YH-IV-211, (1R,4R)-N-(4-fluorophenyl)-5-(4-methoxyphenyl)-2,5-diazabicyclo[2.2.1]heptane-2-carboxamide]
- enhancement of TMZ-induced cell death [5]: better efficacy than PFI-3

Compound: COc1ccc(N2C[C@H]3C[C@@H]2CN3C(=O)Oc2ccccc2)cc1 [YH-IV-235, (1R,4R)-phenyl 5-(4-methoxyphenyl)-2,5-diazabicyclo[2.2.1]heptane-2-carboxylate]
- enhancement of TMZ-induced cell death [5]: better efficacy than PFI-3

Compound: COc1ccc(N2C[C@H]3C[C@@H]2CN3C(=O)Nc2ccc(F)c(F)c2)cc1 [YH-IV-255, (1R,4R)-N-(3,4-difluorophenyl)-5-(4-methoxyphenyl)-2,5-diazabicyclo[2.2.1]heptane-2-carboxamide]
- binding to the BRG1 BRD [2]: bind equivalently to the BRG1 BRD
- selectivity BRG1 versus BRM bromodomain [2]: selective BRG1 bromodomain inhibitor; also recorded: selective inhibitor the BRG-1 bromodomain
- selectivity BRG1 versus BRM bromodomain ([2]; listed as IV-255): binds selectively to the BRG1 BRD
- γH2Ax staining, inhibitor with TMZ [6]: marked increase in γH2Ax staining
- enhancement of TMZ-induced cell death [5]: better efficacy than PFI-3; also recorded: somewhat more bioactive than YH-IV-129; also recorded: markedly enhanced TMZ sensitivity of GBM cells in vitro as compared to PFI-3
- enhancement of bleomycin-induced cell death [5]: sensitized GBM cells to bleomycin-induced cell death
- cell death, inhibitor alone [5]: none of the bromodomain inhibitors (YH-IV-129, YH-IV-255 and YH-IV-275) alone had any death inducing activity
- TMZ sensitivity (TMZ-induced cell death) [7]: similarly increase the TMZ sensitivity of GBM cells
- TMZ sensitivity (TMZ-induced cell death) ([7]; listed as IV-255): potent sensitizer to TMZ-induced cell death
- binding to the BRM BRD [3]: does not bind
- enhancement of TMZ-induced cell death ([8]; TMZ (500 μM) and bromodomain inhibitors (10 μM), FIG. 7): no such activity in BRG1 knockout GBM cells; also recorded: not BRG1 knockout cells
- enhancement of bleomycin-induced cell death ([8]; bleomycin (0.01 μM) and bromodomain inhibitors (10 μM), FIG. 9): ablated in BRG1 knockout MT330 cells
- enhancement of TMZ-induced cell death [9]: very similar activity in enhancing the cell death inducing activity in BRM knockout GBM cells; also recorded: sensitized BRM knockout GBM cells
- bioluminescent signal in the brain [1]: decreased the bioluminescent signal in the brain

Compound: COc1ccc(N2C[C@H]3C[C@@H]2CN3C(=O)Oc2ccc(F)c(F)c2)cc1 [YH-IV-275, (1R,4R)-3,4-difluorophenyl 5-(4-methoxyphenyl)-2,5-diazabicyclo [2.2.1]heptane-2-carboxylate]
- binding to the BRG1 BRD [2]: bind equivalently to the BRG1 BRD
- selectivity BRG1 versus BRM bromodomain [2]: inhibitor of both BRG1 and BRM domains
- γH2Ax staining, inhibitor with TMZ [6]: marked increase in γH2Ax staining
- enhancement of TMZ-induced cell death [5]: better efficacy than PFI-3; also recorded: somewhat more bioactive than YH-IV-129; also recorded: markedly enhanced TMZ sensitivity of GBM cells in vitro as compared to PFI-3
- enhancement of bleomycin-induced cell death [5]: sensitized GBM cells to bleomycin-induced cell death
- cell death, inhibitor alone [5]: none of the bromodomain inhibitors (YH-IV-129, YH-IV-255 and YH-IV-275) alone had any death inducing activity
- TMZ sensitivity (TMZ-induced cell death) [7]: similarly increase the TMZ sensitivity of GBM cells
- binding to the BRM BRD [3]: binds well to the BRM BRD
- enhancement of TMZ-induced cell death [9]: very similar activity in enhancing the cell death inducing activity in BRM knockout GBM cells
- bioluminescent signal in the brain [1]: decreased the bioluminescent signal in the brain

Compound: bleomycin [reference compound]
- γH2Ax staining, bleomycin alone [10]: dose dependent increase of γH2Ax staining
- cell death, bleomycin alone ([7]; low dose of bleomycin (0.01 µM), 72 hr, FIG. 9): induced low levels of cell death in MT330 cells
